The target in one test is T1, CD80-Ig (Homo sapiens, UniProt P33681).
T1 construct: extracellular domain of CD80 fused with the constant region of mouse IgG1 heavy chain
The test can be described thus: Competitive kinetic analysis (SPR): CD28 peptides versus CD28-Ig for binding indirectly immobilized CD80-Ig. The conditions noted are these: for kd: competition with CD28-Ig 3.2 μM. As for the experimental part: Competitive kinetic analysis was performed as described previously using purified anti-mouse IgG1 Fc (31437zz) (Pierce City, Ill., USA) to indirectly immobilize CD80-Ig (39). […] The binding kinetics of CD28-Ig was assessed by injecting a range of CD28-Ig concentration (187 nM to 12 μM) over immobilized CD80-Ig (324 RU) for 5 min at 10 μl/min. CD80-Ig was regenerated using a 3 min injection of 5 mM NaOH. For competitive kinetic analysis, 100 μl of a 3.2 μM CD28-Ig solution was mixed with 100 μl of EL CD28 or RI CD28 peptides (6.18 μM to 503 μM in HBS-EP) and injected over the surface of CD80-Ig as secondary analyte for 5 min with a flow rate of 10 μl/min. The CD80-Ig surface was regenerated between injections by washing for 3 min with 5 mM NaOH. The mixtures were also injected on an empty flow cell with no protein immobilized, as a control.
In competitive kinetic experiments, the observed response R is the sum of the contributions of R1 and R2 from the two analytes. The binding data was analyzed using the equation R(t)=R1 (CD28-Ig)+R2 (CD28-P) (3) where • R1=Rmaxka1C1/kf−ks{k1(kf−ks)/kf*ks+k1−kf/kf*e^−kf^(t−t0)−k1ks/ks*e^−ks(t−t0)} • R2=RmaxMW1ka2C2/MW2*kf−ks[{k2(kf−ks)}/kf*ks}+(k2−kf/kf)*e^−kf^(t−t0)−(k2−ks/ks)*e^−ks(t−t0) • kf=0.5{ktq+k2+π(ka1−k2)^2+4kf1kCD28PC1C2} • ks=0.5{kt1+k2−π(kt1−k2)^2+4k1k2C1C2} • kt CD28-Ig=ka1C+kd1 • kt2=ka2C2+kd2
When competitive data were analyzed, ka, kd and Rmax values obtained for the interaction between CD80-Ig and CD28-Ig were used as non floating parameters and the rate constants for CD28 peptides were calculated from the injection phase data using the expanded equation 3.
FIGS. 4a and 4b are representative sensograms obtained from the competitive experiments using the CD28-Ig and ELCD28 and RICD28 APR respectively. The top curve is the interaction of CD28-Ig (3.2 μM) alone with the CD80-Ig. The response level gradually goes down as the concentration of the specified CD28 peptide increases. […] However, the dissociation constant varied with varying concentration of EL CD28 peptide mimetic(Table 3).

For a further test, the system named is CD4+Vβ8.2+ spleen cells. The test can be described thus: Apoptosis (TUNEL, flow cytometry) of antigen-stimulated CD4+Vβ8.2+ spleen cells in vitro. Type of test: cell-based, mouse. The settings on record: 150 μM peptide, data not shown. The method, then:
(§1) To investigate whether the observed decrease in proliferative responses following treatment with CD28 peptides is a result of cell loss, cell death was measured by enzymatic in-situ labeling. Apoptotic cells among MBP NAc1-11 stimulated TCR Vβ 8.2+ CD4+ T cells were detected by staining with FITC labeled Tdt (terminal deoxynucleotidyl transferase). Cells incubated in DNAse served as positive control.
CD4+ T cells from pooled lymph nodes and spleen from B10.PL TCR Vβ 8.2 Vα 4 transgenic mice were cultured in RPMI 1640 in a 96 well round-bottom plate, essentially under the conditions specified for proliferation assays. Cells were harvested at the end of 48 hours and apoptotic cells among TCR Vβ 8.2+ CD4+ T cells were detected by the TUNEL method. Briefly, after washing twice with PBS containing 1-% rat serum, the cells were stained with PE labeled anti-mouseVβ 8.1,8.2 TCR (clone MR5-2) (Pharmingen, San Diego, Calif.) for 30 min at room temperature and washed. […] After washing, the DNA strand breaks in the cells were detected by incubating the cells with fluorescein labeled TUNEL mix (terminal deoxynucleotidyl transferase (Tdt)) for 60 min at 37° C. using an in situ cell death detection kit (Boehringer Mannheim, Mannheim, Germany) according to the manufacturer's recommendations. […] Cells were then washed with PBS and analyzed by flow cytometry.
In general terms: In flow cytometry, cells or beads pass a laser one at a time.

For test [1], the system named is CD4+ LNC from TCR Vβ 8.2 Vα 4 transgenic mice. The test can be described thus: Apoptosis (TUNEL, flow cytometry) of antigen-stimulated Vβ8.2+ CD4+ lymph node cells in vitro. Type of test: cell-based, mouse. As for the experimental part: as §1
CD4+ T cells from pooled lymph nodes and spleen from B10.PL TCR Vβ 8.2 Vα 4 transgenic mice were cultured in RPMI 1640 in a 96 well round-bottom plate, essentially under the conditions specified for proliferation assays. Cells were harvested at the end of 48 hours and apoptotic cells among TCR Vβ 8.2+ CD4+ T cells were detected by the TUNEL method. Briefly, after washing twice with PBS containing 1-% rat serum, the cells were stained with PE labeled anti-mouseVβ 8.1,8.2 TCR (clone MR5-2) (Pharmingen, San Diego, Calif.) for 30 min at room temperature and washed. Subsequently, the cells were fixed with 4% paraformaldehyde in PBS for 30 min at room temperature. Then the cells were washed and permeabilized with 0.1% Triton X-100 in 0.1% sodium citrate for 2 min at 4° C. After washing, the DNA strand breaks in the cells were detected by incubating the cells with fluorescein labeled TUNEL mix (terminal deoxynucleotidyl transferase (Tdt)) for 60 min at 37° C. using an in situ cell death detection kit (Boehringer Mannheim, Mannheim, Germany) according to the manufacturer's recommendations. As a positive control, cells were incubated in DNAse (1 mg/ml) for 10 minutes at room temperature prior to incubation with TdT. The negative control consisted of cells incubated without TdT. Cells were then washed with PBS and analyzed by flow cytometry.

[2] abbreviates: read-out: ka, competition with CD28-Ig 3.2 μM, peptide C 0.125 × 10^5 nM.
[3] abbreviates: read-out: ka, competition with CD28-Ig 3.2 μM, peptide C 0.25 × 10^5 nM.
Setting [4] is: read-out: ka, competition with CD28-Ig 3.2 μM, peptide C 0.5 × 10^5 nM.
Setting [5] is: read-out: ka, competition with CD28-Ig 3.2 μM, peptide C 1 × 10^5 nM.
Where [6] appears, read: read-out: ka, competition with CD28-Ig 3.2 μM, peptide C 2 × 10^5 nM.
Setting [7] is: read-out: ka, competition with CD28-Ig 3.2 μM, peptide C 3 × 10^5 nM.
Setting [8] is: 150 μM peptide, 48 hr, versus untreated.

Entries after “also recorded” stand apart in the source; their conditions may differ. Read-outs that look alike come from different tables or passages of the source. Square brackets hold non-standard residues; d marks the D form. Peptide text beside a SMILES is read from it.

T1 sequence (P33681 35-242 limits assumed, other chains not shown): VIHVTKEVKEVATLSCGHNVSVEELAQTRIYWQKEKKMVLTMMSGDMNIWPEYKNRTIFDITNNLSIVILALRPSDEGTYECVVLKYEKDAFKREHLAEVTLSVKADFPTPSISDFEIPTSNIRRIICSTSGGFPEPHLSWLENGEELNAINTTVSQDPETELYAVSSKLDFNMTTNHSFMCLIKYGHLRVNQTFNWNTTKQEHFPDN

In the case of `CC[C@@H](C)[C@@H](NC(C)=O)C(=O)N[C@@H](C(=O)NCC(=O)N[C@H](CC(N)=O)C(=O)N[C@H](CO)C(=O)N[C@H](CCCNC(=N)N)C(=O)N[C@H](CCC(=O)O)C(=O)N[C@H](CC(N)=O)C(=O)N[C@H](CC(=O)O)C(=O)N[C@H](CC(C)C)C(=O)N[C@H](Cc1ccc(O)cc1)C(=O)N1CCC[C@@H]1C(=O)N1CCC[C@@H]1C(=O)N1CCC[C@@H]1C(=O)N[C@H](Cc1ccc(O)cc1)C(=O)N[C@H](CCSC)C(=O)N[C@H](Cc1ccccc1)C(=O)N[C@H](CCC(=O)O)C(=O)N[C@@H](C(=O)N[C@H](CCCCN)C(N)=O)[C@H](C)CC)[C@H](C)O` [RI CD28] (Ac-[dI][dT]G[dN][dS][dR][dE][dN][dD][dL][dY][dP][dP][dP][dY][dM][dF][dE][dI][dK]-NH2), the kd worked out at 0.177 s⁻¹ at CD80-Ig (peptide C 0.125 × 10^5 nM); 0.0738 s⁻¹ at CD80-Ig (peptide C 0.25 × 10^5 nM); 0.275 s⁻¹ at CD80-Ig (peptide C 0.5 × 10^5 nM); 0.142 s⁻¹ on CD80-Ig (peptide C 1 × 10^5 nM); 0.0245 s⁻¹ on CD80-Ig (peptide C 2 × 10^5 nM); 0.0206 s⁻¹ on CD80-Ig (peptide C 3 × 10^5 nM). Also, the kon at CD80-Ig (setting [2]) was 105000 M⁻¹ s⁻¹; on CD80-Ig (setting [3]), 54400 M⁻¹ s⁻¹; at CD80-Ig (setting [4]), 92400 M⁻¹ s⁻¹; at CD80-Ig (setting [5]), 94700 M⁻¹ s⁻¹; at CD80-Ig (setting [6]), 23500 M⁻¹ s⁻¹; on CD80-Ig (setting [7]), 10700 M⁻¹ s⁻¹. Further, the “apoptosis (in words)” value with CD4+Vβ8.2+ spleen cells is “increase in apoptosis”. Moreover, the “percentage of apoptotic cells (in words)” value is reported as “Significant increase” in test [1] (75 μM peptide, 48 hrs) and “significantly higher percentage; also recorded: Significant increase” in test [1] (setting [8]).

In the case of `CC[C@H](C)[C@H](NC(=O)[C@@H](NC(=O)CNC(=O)[C@H](CC(N)=O)NC(=O)[C@H](CO)NC(=O)[C@H](CCCNC(=N)N)NC(=O)[C@H](CCC(=O)O)NC(=O)[C@H](CC(N)=O)NC(=O)[C@H](CC(=O)O)NC(=O)[C@H](CC(C)C)NC(=O)[C@H](Cc1ccc(O)cc1)NC(=O)[C@@H]1CCCN1C(=O)[C@@H]1CCCN1C(=O)[C@@H]1CCCN1C(=O)[C@H](Cc1ccc(O)cc1)NC(=O)[C@H](CCSC)NC(=O)[C@H](Cc1ccccc1)NC(=O)[C@H](CCC(=O)O)NC(=O)[C@@H](NC(=O)[C@H](CCCCN)NC(C)=O)[C@@H](C)CC)[C@@H](C)O)C(N)=O` [EL CD28] (Ac-KIEFMYPPPYLDNERSNGTI-NH2), the kd at CD80-Ig (peptide C 0.125 × 10^5 nM) was found to be 0.101 s⁻¹; at CD80-Ig (peptide C 0.25 × 10^5 nM) it was 0.0195 s⁻¹; on CD80-Ig (peptide C 0.5 × 10^5 nM), 0.316 s⁻¹; on CD80-Ig (peptide C 1 × 10^5 nM), 0.0803 s⁻¹; at CD80-Ig (peptide C 2 × 10^5 nM) it was 0.0862 s⁻¹; at CD80-Ig (peptide C 3 × 10^5 nM), 6.89 s⁻¹. For the same compound, the kon at CD80-Ig (setting [2]) worked out at 73400 M⁻¹ s⁻¹; at CD80-Ig (setting [3]), 3360 M⁻¹ s⁻¹; at CD80-Ig (setting [4]) it was 63200 M⁻¹ s⁻¹; on CD80-Ig (setting [5]) it was 31600 M⁻¹ s⁻¹; on CD80-Ig (setting [6]) it was 55100 M⁻¹ s⁻¹; at CD80-Ig (setting [7]), 2.36e+06 M⁻¹ s⁻¹. Besides, the “apoptosis (in words)” value in the test with CD4+Vβ8.2+ spleen cells is reported as “increase in apoptosis”. Moreover, the “percentage of apoptotic cells (in words)” value is given as “Significant increase” in test [1] (setting [8]) and “significantly higher percentage” in test [1] (150 μM peptide, 48 hr, versus untreated, listed as ELCD28).

Values taken from US7220822B2, “CD28 mimetics for blocking T cell mediated immune reactions” (The Ohio State University, priority 2000, dated 2007).
